Results: PubChem BioAssay AID1845228

Details: pampa; 60.0 min; 50.0 µM

| Structure (SMILES) | Papp [nm/s] |
| --- | --- |
| Cc1ccc(NC(=O)c2ccc(CN3CCN(C)CC3)cc2)cc1Nc1nc(-c2cccnc2)cs1 | 1000 |
| C[C@]12CCCN1CC1=NNC(=O)c3cc(F)cc4[nH]c2c1c34 | 220 |
| Nc1nc2c(c(N3CCNCC3)n1)CCC1=C2[C@@H]2CCCC[C@@H]2O1 | 300 |
| CC(=O)c1cc2c(s1)c1cnn(Cc3ccccc3F)c(=O)c1n2C | > 3000 |
| O=C(NO)c1cnc(NC2(c3ccccc3)CC2)nc1 | 20 |
| NC(=O)NCC(=O)N[C@H]1CC[C@H](Nc2nccc(-c3ccncc3)n2)C1 | < 10 |
| CNS(=O)(=O)Cc1ccc2[nH]cc(CCN(C)C)c2c1 | < 10 |
| [O-][n+]1cccc(/C(Cl)=N/OC[C@@H](O)CN2CCCCC2)c1 | 20 |
| CCNC(=O)c1cc2c(-c3cc(OCCN4CCCC4)c(Cl)cc3Cl)nc(N)nc2s1 | 1230 |
| CC(C)CN(CC(=O)N(CCCN1CCCC1=O)CC(N)=O)C(=O)CNCCc1ccccc1F | < 10 |
| C=CC1=C(C(=O)O)N2C(=O)[C@@H](NC(=O)/C(=N\O)c3csc(N)n3)[C@H]2SC1 | < 10 |
| Cn1nnnc1Sc1ncnc2scc(-c3ccsc3)c12 | 1730 |
| NC(=O)c1cccc(-c2cc(Nc3ccc(OC(F)(F)F)cc3)ncn2)c1 | 944 |
| CC1(C)S[C@@H]2[C@@H](N3C(=O)[C@@H](c4ccccc4)NC3(C)C)C(=O)N2[C@H]1C(=O)O | > 3000 |
| O=C(NCC1(N2CCN(c3ccccc3)CC2)CCOCC1)c1cccnc1Sc1ccccc1 | 2070 |
| COc1ccc(CCn2cnc3c(c(-c4ccccc4)cn3Cc3ccccc3)c2=N)cc1OC | 2840 |
| CC1(C#N)CCN(c2c(C(=O)N3CCN(S(C)(=O)=O)CC3)cnc3ccc(F)cc23)CC1 | 190 |
| CN1CCCC(=C(c2cccs2)c2cccs2)C1 | < 10 |
| COc1cc(Cc2cnc(N)nc2N)c(C(C)C)cc1OC | 480 |
| CCO[C@@H]1OC(=O)C[C@@H]1NC(=O)[C@@H]1CCCN1C(=O)[C@@H](NC(=O)c1ccc(N)c(Cl)c1)C(C)(C)C | 40 |

| Structure (SMILES) | Papp [nm/s] |
| --- | --- |
| Cn1nnnc1Sc1ncnc2scc(-c3cccs3)c12 | 2440 |
| CC(OC(=O)NCC1(CC(=O)O)CCCCC1)OC(=O)C(C)C (stereo not given) | 1430 |
| CON=C(C(=O)N[C@@H]1C(=O)N2C(C(=O)O)=C(Cn3ccc(=N)n3CCO)CS[C@H]12)c1csc(N)n1 | < 10 |
| Cc1ccc(CN2C(=O)C(=O)c3cc(Br)cc(C)c32)cc1 | 985 |
| CCC[C@@H](NC(=O)N1C(=O)C(CC)(CC)[C@@H]1Oc1ccc(C(=O)N2CCN(C)CC2)cc1)c1ccc2c(c1)OCO2 | > 3000 |
| CCCCN(CCCC)C(=O)CN1C[C@H](c2ccc3c(c2)OCO3)[C@@H](C(=O)O)[C@@H]1c1ccc(OC)cc1 | 90 |
| CC(C)C[C@H](NC(=O)CNC(=O)c1cc(Cl)ccc1Cl)B1OC(=O)C(CC(=O)O)(CC(=O)O)O1 | < 10 |
| COC(=O)c1cccc(Cn2cnc3c(c(-c4ccccc4)c(-c4ccccc4)n3CCc3ccccc3)c2=N)c1 | 270 |
| CC1CN(c2cc3c(cc2F)c(=O)c(C(=O)O)cn3-c2ccc(F)cc2F)CCN1 (stereo not given) | 50 |
| Cc1ccccc1N(C)C1CN([S+](=O)([O-])c2cccc(C(F)(F)F)c2)C1 | > 3000 |
| CN1CCN(C(=O)Cc2c[nH]c3ncc(-c4ccccc4Oc4ccccc4)cc23)CC1 | 2990 |
| NC(=O)[C@@H]1C[C@]2(NC(=O)NC2=O)c2cc(F)ccc2O1 | < 10 |
| O=C(Nc1ncc([N+](=O)[O-])s1)c1ccccc1O | 80 |
| Nc1ncnc2c1ncn2[C@@H]1O[C@H](CSCC[C@H](N)C(=O)O)[C@@H](O)[C@H]1O | < 10 |
| C[N+](C)([O-])CCNc1ccc(NCC[N+](C)(C)[O-])c2c1C(=O)c1c(O)ccc(O)c1C2=O | 400 |
| Cn1nnnc1Sc1ncnc2scc(-c3cccc(F)c3)c12 | > 3000 |
| COc1ccc(Cl)cc1NC(=O)c1sc2nc3c(cc2c1N)N1CCC3CC1 | < 10 |
| CCCN[C@H]1CCc2nc(N)sc2C1 | 40 |
| COC(Cn1cnc2c(c(-c3ccccc3)c(-c3ccccc3)n2CCc2ccccc2)c1=N)OC | 2360 |
| COC(=O)C[C@@H](C(=O)OC)n1cnc2c(c(-c3ccccc3)cn2Cc2ccc(Br)cc2)c1=N | < 10 |
